What all share (assay type): biochemical
In one assay the test system is leucine aminopeptidase. Description: Leucine aminopeptidase-inhibitory activity. As to conditions: concentration 0.1 μM; swine kidney, pH 8.0. As to the method:
(§1) Inhibitory activity against various proteases
(§2) The compound of the present invention having predetermined concentrations was tested for the specificity of the inhibitory activity against various proteases according to a known test method.
(§3) The methods for the determination of the inhibitory activity against various proteases other than prolyl endopeptidase and the method for calculating the inhibition are as follows.
Determination of leucine aminopeptidase-inhibitory activity
In completely the same manner as above, respective fluorescence (d1, d2 and d3) was determined using a 50 mM Tris-HCl buffer (pH 8.0) as a buffer for determination, a 0.2 μM solution of leucine aminopeptidase (derived from swine kidney, Sigma) in the same buffer as an enzyme solution and a 200 μM solution of 7-leucyl-4-methyl-coumarinamide (Peptide Institute, Inc.) in the same buffer as a substrate solution.
(§4) Using the fluorescence x1, x2 and x3 wherein x is b, c, d, e or f, measured in the above-mentioned manner, the inhibition against various proteases was calculated by the following formula: [formula]

The target of another assay is T1, elastase (Sus scrofa, UniProt P00772).
T1 construct: purchased Sigma; host or cells: swine pancreas
T1 sequence (P00772 27-266): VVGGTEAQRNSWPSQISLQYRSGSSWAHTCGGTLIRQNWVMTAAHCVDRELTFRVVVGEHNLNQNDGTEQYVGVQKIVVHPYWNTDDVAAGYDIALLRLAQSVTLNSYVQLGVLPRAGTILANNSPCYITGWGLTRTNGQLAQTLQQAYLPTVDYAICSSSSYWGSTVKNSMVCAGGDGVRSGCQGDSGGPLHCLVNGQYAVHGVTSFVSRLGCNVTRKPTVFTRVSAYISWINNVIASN
Description: Elastase-inhibitory activity. Conditions: concentration 0.1 μM; swine pancreas, pH 8.5. The procedure:
as §1, §2, §3
Determination of elastase-inhibitory activity
In completely the same manner as above, respective fluorescence (e1, e2 and e3) was determined using a 1 mM Tris-HCl buffer (pH 8.5) as a buffer for determination, a 0.2 μM solution of elastase (derived from swine pancreas, Sigma) in the same buffer as an enzyme solution and a 200 μM solution of 7-(N-succinyl-aranyl-prolyl-aranyl)-4-methylcoumarinamide (Peptide Institute, Inc.) in the same buffer as a substrate solution.
as §4

The target in a further assay is T2, prolyl endopeptidase (Rattus norvegicus, UniProt O70196).
T2 construct: prolyl endopeptidase extracted from rat brain; from tissue; host or cells: rat brain
T2 sequence (O70196 1-710): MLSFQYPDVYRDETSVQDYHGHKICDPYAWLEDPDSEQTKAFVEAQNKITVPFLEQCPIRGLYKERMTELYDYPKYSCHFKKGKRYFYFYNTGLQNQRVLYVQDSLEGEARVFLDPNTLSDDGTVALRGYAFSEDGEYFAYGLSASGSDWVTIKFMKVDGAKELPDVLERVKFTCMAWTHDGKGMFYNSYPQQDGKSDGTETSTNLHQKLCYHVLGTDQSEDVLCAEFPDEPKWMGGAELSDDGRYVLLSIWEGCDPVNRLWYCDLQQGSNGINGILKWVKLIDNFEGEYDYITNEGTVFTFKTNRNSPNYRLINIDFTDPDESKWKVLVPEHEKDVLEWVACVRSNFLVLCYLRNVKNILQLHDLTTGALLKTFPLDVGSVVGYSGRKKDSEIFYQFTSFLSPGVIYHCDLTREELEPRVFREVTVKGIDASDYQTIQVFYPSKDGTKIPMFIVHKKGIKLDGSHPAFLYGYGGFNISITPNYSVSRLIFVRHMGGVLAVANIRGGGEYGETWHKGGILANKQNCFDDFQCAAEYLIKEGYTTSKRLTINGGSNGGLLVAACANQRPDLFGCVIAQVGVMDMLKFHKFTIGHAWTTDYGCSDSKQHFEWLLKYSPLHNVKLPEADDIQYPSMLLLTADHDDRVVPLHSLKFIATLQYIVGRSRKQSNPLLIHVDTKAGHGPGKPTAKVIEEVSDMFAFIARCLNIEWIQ
Put plainly: Prolyl endopeptidase-inhibitory activity. As to conditions: for inhibition at 0.1 µM: read-out: inhibition of prolyl endopeptidase. The procedure: Prolyl endopeptidase-inhibitory activity
A mixture of a 0.1M potassium-sodium phosphate buffer (pH 7.0, 2675 μl ), a solution of the compound of the present invention in a 0.1M potassium-sodium phosphate buffer (pH 7.0, 100 μl ) and a solution of prolyl endopeptidase extracted from rat brain in a 25 mM sodium phosphate buffer (100 μl ) [123 unit/1, pH 6.8, containing 1 mM dithiothreitol and 0.5 mM EDTA, prepared by the method described in J. Neurochem., 35, 527 (1980)] was preincubated at 30° C. for 30 minutes. Thereto was added a 0.2 mM solution of 7-(N-succinyl-glycyl-prolyl)-4methylcoumarinamide (Peptide Institute, INC.) in a 0.1M potassium-sodium phosphate buffer (pH 7.0, 125 μl), and the mixture was incubated at 30° C. for 1 hour. The reaction mixture was immersed in ice (0° C.) to terminate the reaction, and the fluorescence (a1) was determined ten minutes later (excitation at 370 nm and emission at 440 nm). Concurrently, an experiment wherein, in the above system, the prolyl endopeptidase solution was substituted for a 25 mM sodium phosphate buffer (pH 6.8, containing 1 mM dithiothreitol and 0.5 mM EDTA) and an experiment wherein the solution of the compound of the present invention was substituted for a 0.1M potassium-sodium phosphate buffer (pH 7.0) were conducted. Each fluorescence (a2 and a3) was determined [See Tanpakushitsu Kakusan Koso, 29, 127 (1984)]. The prolyl endopeptidase inhibition was calculated by the following formula, and IC50, a concentration necessary for 50% inhibition, was estimated by using a semilogarithmic graph paper. [formula]

In a further assay the target is T3, cathepsin B (Bos taurus, UniProt P07688).
T3 construct: purchased Sigma; host or cells: bovine spleen
Put plainly: Cathepsin B-inhibitory activity. Conditions: concentration 0.1 μM; bovine spleen, pH 6.0. The procedure: as §1, §2, §3
Determination of cathepsin B-inhibitory activity
In completely the same manner as above, respective fluorescence (f1, f2 and f3) was determined using a 100 mM sodium phosphate buffer (pH 6.0; containing 1.33 mM EDTA Na2) as a buffer for determination, a 0.02 μM solution of cathepsin B (derived from bovine spleen, Sigma) in the same buffer as an enzyme solution and a 200 μM solution of 7-(N-benzyloxy-carbonyl-phenylaranyl-arginyl)-4-methylcouma-rinamide (Peptid Institute, Inc.) in the same buffer as a substrate solution.
as §4

For another assay, the target named is T4, trypsin (Bos taurus, UniProt P00760).
T4 construct: purchased Sigma; host or cells: bovine pancreas
T4 sequence (P00760 24-246): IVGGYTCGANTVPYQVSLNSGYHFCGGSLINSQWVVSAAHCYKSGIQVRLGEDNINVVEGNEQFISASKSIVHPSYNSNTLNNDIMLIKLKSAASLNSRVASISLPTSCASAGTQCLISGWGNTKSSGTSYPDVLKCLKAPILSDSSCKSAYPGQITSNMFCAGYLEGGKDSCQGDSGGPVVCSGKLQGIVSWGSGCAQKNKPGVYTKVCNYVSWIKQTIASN
Description: Trypsin-inhibitory activity. As to conditions: concentration 0.1 μM; bovine pancreas, pH 8.0. As to the method:
as §1, §2, §3
Determination of trypsin-inhibitory activity
In the present invention, a 50 mM Tris-HCI buffer (pH 8.0) was used as a buffer for measurement.
To a mixture of the above-mentioned buffer (850 μl ), a solution of the compound of the present invention in the same buffer (50 μl ) and a 0.02 μM solution of trypsin (derived from bovine pancreas, Sigma) in the same buffer (50 μl ) was added a 200 μM solution of 7-(prolyl-phenylaranyl-arginyl)-4methylcoumarinamide (Peptide Institute, Inc.) in the same buffer (50 μl), and the mixture was incubated at 30° C. for 1 hour. The reaction mixture was immersed in ice (0° C.) to terminate the reaction, and the fluorescence (b1) was determined 1 hour later (excitation at 370 nm and emission at 440 nm). Concurrently, an experiment wherein, in the system above, the trypsin solution was substituted for a buffer and an experiment wherein the solution of the compound of the present invention was substituted for said buffer were conducted. Each fluorescence (b2 and b3) was determined.
as §4

In a further assay the target is T5, chymotrypsin (Bos taurus, UniProt P00766).
T5 construct: purchased Sigma; host or cells: bovine pancreas
Description: Chymotrypsin-inhibitory activity. As to conditions: concentration 0.1 μM; bovine pancreas, pH 8.0. As to the method:
as §1, §2, §3
Determination of chymotrypsin-inhibitory activity
In completely the same manner as above, respective fluorescence (c1, c2 and c3) was determined using a 50 mM Tris-HCl buffer (pH 8.0) as a buffer for determination, a 0.2 μM solution of chymotrypsin (derived from bovine pancreas, Sigma) in the same buffer as an enzyme solution, and a 200 μM solution of 7-(N-succinyl-leucyl-leucyl-varyl-tyrosyl)-4-methylcoumarinamide (Peptide Institute, Inc.) in the same buffer as a substrate solution.
as §4

Each structure is given as a SMILES string.

The compound `CC(=O)OCC(=O)[C@@H]1CCCN1C(=O)[C@@H]1CCCN1C(=O)NCc1ccccc1` [Compound 1, (S)-2-[[(S)-2-(Acetoxyacetyl)-1-pyrrolidinyl]carbonyl]-N-(phenylmethyl)-1-pyrrolidinecarboxamide] had an inhibition of leucine aminopeptidase in the assay with leucine aminopeptidase of 0%. The inhibition at 0.1 µM against elastase came out at 0%; on prolyl endopeptidase it was 100%; at cathepsin B it was 0%; against trypsin, 0%; against chymotrypsin, 0%. Besides, the concentration for half-maximal inhibition (IC50) against prolyl endopeptidase stood at 0.1 nM.

In turn, `Cc1ccc(CNC(=O)N2CCC[C@H]2C(=O)N2CCC[C@H]2C(=O)COC(=O)c2ccccc2)cc1` [Compound 8, (S)-2-[[(S)-2-(Benzoyloxyacetyl)-1-pyrrolidinyl]carbonyl]-N-[(4methylphenyl)methyl]-1-pyrrolidinecarboxamide] showed an inhibition of leucine aminopeptidase in the assay with leucine aminopeptidase of 0%. Besides, the inhibition at 0.1 µM was 0% against elastase; 100% on prolyl endopeptidase; 0% on cathepsin B; 0% on trypsin; 0% on chymotrypsin. At prolyl endopeptidase, this compound displayed an IC50 of 0.4 nM.

(Values after US5536737A, “Compound having prolyl endopeptidase inhibitory activity and pharmaceutical use thereof” (Japan Tobacco Inc., priority 1992, dated 1996).)
